Results: patent publication US9732088B2, “C2-carbocyclic iminothiazine dioxides as BACE inhibitors, compositions, and their use” (Merck Sharp & Dohme Corp., priority 2014, dated 2017)

Experiments:
[1] = target: soluble human BACE-1 catalytic domain (Homo sapiens (Human), UniProt P56817); assay: BACE-1 Ki Assay (BACE-1 HTRF FRET Assay); type: biochemical; settings: Assay 1; Ki calculated from IC50 by Cheng-Prusoff
Description: Assay 1: BACE-1 Ki Assay (BACE-1 HTRF FRET Assay)
The compounds of the invention were determined to be potent inhibitors of BACE-1 using the following assay.
The following reagents were used in this assay. Na^+-Acetate pH 5.0; 1% Brij-35; Glycerol; Dimethyl Sulfoxide (DMSO); Recombinant human soluble BACE-1 catalytic domain (>95% pure); APP Swedish mutant peptide substrate (QSY7-APP^swe-Eu): QSY7-[…]-Europium-amide.
A homogeneous time-resolved FRET assay can be used to determine IC50 values for inhibitors of the soluble human BACE-1 catalytic domain. This assay monitors the increase of 620 nm fluorescence that resulted from BACE-1 cleavage of an APPswedish APP^swe mutant peptide FRET substrate (QSY7-[…]-Europium-amide). This substrate contains an N-terminal QSY7 moiety that serves as a quencher of the C-terminal Europium fluorophore (620 nm Em). In the absence of enzyme activity, 620 nm fluorescence is low in the assay and increased linearly over 3 hours in the presence of uninhibited BACE-1 enzyme. Inhibition of BACE-1 cleavage of the QSY7-APP^swe-Eu substrate by inhibitors is manifested as a suppression of 620 nm fluorescence.
Varying concentrations of inhibitors at 3× the final desired concentration in a volume of […] are preincubated with purified human BACE-1 catalytic domain (3 nM in 10 μl) for 30 minutes at 30° C. in reaction buffer containing 20 mM Na-Acetate pH 5.0, 10% glycerol, 0.1% Brij-35 and 7.5% DSMO. Reactions are initiated by addition of 10 μl of 600 nM QSY7-APP^swe-Eu substrate (200 nM final) to give a final reaction volume of 30 μl in a 384 well Nunc HTRF plate. The reactions are incubated at 30° C. for 1.5 hours. The 620 nm fluorescence is then read on a Rubystar HTRF plate reader (BMG Labtechnologies) using a […] delay followed by a 400 millisecond acquisition time window. Inhibitor IC50 values are derived from non-linear regression analysis of concentration response curves. Ki values are then calculated from IC50 values using the Cheng-Prusoff equation using a previously determined […] of 8 μM for the QSY7-APP^swe-Eu substrate at BACE-1. The example compounds of the invention were measured in this assay.

[2] = target: purified human autoBACE-2 (Homo sapiens (Human), UniProt Q9Y5Z0); assay: BACE-2 Assay (BACE-HTRF assay); type: biochemical; settings: Assay 2; Ki calculated from IC50 by Cheng-Prusoff; read-out: BACE2 Ki
purified human autoBACE-2, sequence (Q9Y5Z0 63-466): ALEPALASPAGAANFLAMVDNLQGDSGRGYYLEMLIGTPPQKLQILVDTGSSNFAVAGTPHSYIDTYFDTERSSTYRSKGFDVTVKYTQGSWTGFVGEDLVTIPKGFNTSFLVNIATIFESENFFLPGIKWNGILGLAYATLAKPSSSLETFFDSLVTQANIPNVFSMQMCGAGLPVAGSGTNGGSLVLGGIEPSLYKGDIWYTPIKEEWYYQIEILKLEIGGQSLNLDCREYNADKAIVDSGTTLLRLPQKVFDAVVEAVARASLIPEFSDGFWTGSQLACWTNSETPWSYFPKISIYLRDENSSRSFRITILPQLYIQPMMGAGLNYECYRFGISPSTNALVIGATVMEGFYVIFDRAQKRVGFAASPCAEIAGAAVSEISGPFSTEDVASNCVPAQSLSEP
Description: The compounds of the invention were determined to be potent inhibitors of BACE-2 using the following assay. Inhibitor IC50s at purified human autoBACE-2 are determined in a time-resolved endpoint proteolysis assay that measures hydrolysis of the QSY7-[…]-Eu-amide FRET peptide substrate (BACE-HTRF assay). BACE-mediated hydrolysis of this peptide results in an increase in relative fluorescence (RFU) at 620 nm after excitation with 320 nm light Inhibitor compounds, prepared at 3× the desired final concentration in 1×BACE assay buffer (20 mM sodium acetate pH 5.0, 10% glycerol, 0.1% Brij-35) supplemented with 7.5% DMSO are pre-incubated with an equal volume of autoBACE-2 enzyme diluted in 1×BACE assay buffer (final enzyme concentration 1 nM) in black 384-well NUNC plates for 30 minutes at 30° C. […] DMSO is present at […] final concentration in the assay. Following laser excitation of sample wells at 320 nm, the fluorescence signal at 620 nm is collected for 400 ms following a 50 μs delay on a RUBYstar HTRF plate reader (BMG Labtechnologies). Raw RFU data is normalized to maximum (1.0 nM BACE/DMSO) and minimum (no enzyme/DMSO) RFU values. IC50 values are determined by nonlinear regression analysis (sigmoidal dose response, variable slope) of percent inhibition data with minimum and maximum values set to 0 and 100 percent respectively. Similar IC50s are obtained when using raw RFU data. The Ki values are calculated from the IC50 using the Cheng-Prusoff equation.

BACE-1 = BACE-1 (Homo sapiens (Human), UniProt P56817); assay: BACE-1 Cellular Assay (Aβ in HEK293-APPswe/lon cells); type: cell-based; settings: 4 hours
BACE-1, sequence (P56817 46-501): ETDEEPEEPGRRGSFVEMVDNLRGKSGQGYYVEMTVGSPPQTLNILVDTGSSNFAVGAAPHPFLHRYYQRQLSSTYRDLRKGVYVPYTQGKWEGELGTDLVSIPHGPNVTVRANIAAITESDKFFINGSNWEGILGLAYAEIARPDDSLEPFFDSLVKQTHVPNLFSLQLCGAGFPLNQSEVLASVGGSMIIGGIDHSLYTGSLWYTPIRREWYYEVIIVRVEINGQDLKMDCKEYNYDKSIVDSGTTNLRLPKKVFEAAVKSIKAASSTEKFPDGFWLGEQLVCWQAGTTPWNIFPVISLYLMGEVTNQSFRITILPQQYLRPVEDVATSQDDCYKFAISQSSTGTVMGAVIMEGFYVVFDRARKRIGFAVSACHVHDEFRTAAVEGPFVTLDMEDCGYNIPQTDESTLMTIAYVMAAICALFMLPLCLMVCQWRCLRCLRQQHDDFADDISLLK
Summary of the method: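 HEK293 cells stably expressing human APP with Swedish and London FAD mutations, cultured at 37° C., 5% CO2. Aβ40 or Aβ42 in conditioned media measured by electrochemiluminescent ELISA (WO2 capture; G2-10 or G2-11 detection). IC50 from variable-slope sigmoidal fit of signal versus compound concentration.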

[3] = target: purified human Cathepsin-D (Homo sapiens (Human), UniProt P07339); assay: Cathepsin-D Assay (time-resolved FRET); type: biochemical; settings: Assay 4; Ki calculated from IC50 by Cheng-Prusoff;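 also: Europium-labelled peptide substrate with QSY7 quencher, cleavage read as 620 nm fluorescence after 30 min preincubation then 30 min reaction at 30 °C, pH 5.0, inhibition lowers signal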
purified human Cathepsin-D, sequence (P07339 65-412): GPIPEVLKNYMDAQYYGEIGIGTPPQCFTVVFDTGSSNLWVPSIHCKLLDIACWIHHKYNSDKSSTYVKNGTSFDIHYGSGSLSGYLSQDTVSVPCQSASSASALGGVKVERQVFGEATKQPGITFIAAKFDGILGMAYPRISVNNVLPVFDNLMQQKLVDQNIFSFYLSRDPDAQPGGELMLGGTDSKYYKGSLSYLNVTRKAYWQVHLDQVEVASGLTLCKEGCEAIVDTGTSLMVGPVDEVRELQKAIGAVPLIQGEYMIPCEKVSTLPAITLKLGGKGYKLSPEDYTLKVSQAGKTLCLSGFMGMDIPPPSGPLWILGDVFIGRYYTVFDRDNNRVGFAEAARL
Description: Assay 4: Cathepsin-D Assay
This substrate contains an C-terminal QSY7 moiety that serves as a quencher of the N-terminal Europium fluorophore (620 nm Em). In the absence of enzyme activity, 620 nm fluorescence is low in the assay and increased linearly over 1 hour in the presence of uninhibited Cathepsin-D enzyme. Inhibition of Cathespin D cleavage of the Eu-Aspartyl Protease-QSY7 substrate by inhibitors is manifested as a suppression of 620 nm fluorescence.
Varying concentrations of inhibitors in a volume of 100 nl are preincubated with purified human Cathepsin-D (0.1 nM in 10 μl) for 30 minutes at 30° C. in reaction buffer containing 100 mM Na-Acetate pH 5.0, and 0.02% Brij-35. Reactions are initiated by addition of 10 μl of 100 nM Eu-Aspartyl Protease-QSY7 substrate (50 nM final) to give a final reaction volume of 20 μl in a 384 well Nunc HTRF plate. The reactions are incubated at 30° C. for 30 minutes. The 620 nm fluorescence is then read on a Envision Multilabel plate reader (Perkin-Elmer) using a 200 microsecond delay followed by a 400 microsecond acquisition time window. Inhibitor IC50 values are derived from non-linear regression analysis of concentration response curves.

HepG2 cells = assay: In Vitro Phospholipidosis Assay; type: cell-based; settings: 20 μM, 24 hours, normalized to DMSO
Text: [formula] Assay 7: In Vitro Phospholipidosis Assay
Drug-induced phospholipidosis (PL) is characterized by intracellular accumulation of phospholipids with lamellular bodies, and may result from impaired phospholipid metabolism in the lysosome (Anderson et al., 2006, FEBS Letter, 580, 5533-5540), and many compounds known to cause drug-induced PL are also associated with adverse drug reactions. Using a method described in the literature (Bhandari et al., 2008, Assay and Drug Dev. Tech., 6(3), 407-419), an in vitro cellular assay can provide data that can determine the PL potential of test compounds. In this assay, compounds that lower values for mean inclusion count of a fluorescent phospholipid (described below) versus control are associated with reduced potential for PL.
HepG2 cells were dispensed into 96-well collagen I coated plates at an initial density of 2.0×10^5 cells in 200 μL complete culturing medium (MEM Media w/Earle's Balanced Salt Solution supplemented with 10 IU penicillin, 10 μg/mL streptomycin, and 10% heat inactivated fetal bovine serum). Cells were incubated overnight at 37° C. with 5% CO2, 89% humidity prior to treatment.
A solution of fluorescently labeled phospholipid N-(7-nitrobenz-2-oxa-1,3-diazol-4-yl)-1,2-dihexadecanoyl-sn-glycero-3-phosphoethanolamine (NBD-PE) was prepared at a concentration of 10 mM in absolute ethanol. Dissolution of the NBD-PE was facilitated by sonication in a room temperature water bath for 30 minutes. NBD-PE medium was prepared by diluting NBD-PE stock to a final concentration of 50 μM in complete culturing medium, filtering (pore size, 0.22 μm) prior to use.
Compound treatment stocks were prepared in dimethyl sulfoxide at 500× final concentrations. Working treatment solutions were prepared by diluting compound stocks into NBD-PE medium with DMSO serving as the vehicle control. Treatment concentration was 20 μM. Amiodarone ((2-{4-[(2-butyl-1-benzofuran-3-yl)carbonyl]-2,6-diiodophenoxy}ethyl)diethylamine) served as the assay positive control at the same concentration. All treatments were tested in triplicate for 24 hours.
Following treatment, cultures were rinsed once with Hank's Balanced Salt Solution (HBSS) containing no phenol red. Cultures were then incubated for 30 minutes at 37° C. with […] Hoechst 33342 nuclear stain and […] cell tracker orange cytoplasm stain. After incubation, cells were rinsed once with HBSS and then fixed in 2% formalin solution.
Cultures were imaged using the IN Cell Analyzer 2000 imaging system. One set of images were acquired with the 4× objective using the appropriate Hoechst filter settings to acquire a full-well cell count. Another set of images were acquired to evaluate treatment-related phospholipidosis with the 20× objective.
Images were analyzed using custom algorithms created in the IN Cell Workstation software using NBD-PE inclusion count in the cell cytoplasm as and endpoint associated with phospholipidosis. Data were expressed as fold over control, normalized to the DMSO vehicle control response.

soluble human BACE-1 catalytic domain, sequence (P56817 75-416): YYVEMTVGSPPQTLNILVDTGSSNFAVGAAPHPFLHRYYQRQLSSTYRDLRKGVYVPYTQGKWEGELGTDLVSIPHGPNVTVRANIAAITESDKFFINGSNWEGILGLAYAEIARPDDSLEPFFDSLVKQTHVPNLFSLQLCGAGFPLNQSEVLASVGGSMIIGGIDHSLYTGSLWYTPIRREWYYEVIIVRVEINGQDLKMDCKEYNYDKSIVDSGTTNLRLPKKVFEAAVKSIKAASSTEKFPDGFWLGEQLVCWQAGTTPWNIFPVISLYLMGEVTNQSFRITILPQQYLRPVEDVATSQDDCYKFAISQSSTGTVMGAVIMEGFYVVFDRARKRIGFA

SMILES: COc1cnc2c(Nc3ccc(F)c([C@]4(C)CS(=O)(=O)[C@@](CF)(C5CC5)C(N)=N4)c3)nccc2c1 [Example 7, N-{3-[(3R,6S)-6-cyclopropyl-6-(fluoromethyl)-5-imino-3-methyl-1,1-dioxidothiomorpholin-3-yl]-4-fluorophenyl}-3-methoxy-1,7-naphthyridin-8 amine]
- Ki [1]: 0.0071 µM
- Ki [2]: 0.0036 µM
- IC50 (BACE-1): 132 nM
- Ki [3]: 1120 nM
- In Vitro Phospholipidosis Assay: Mean NBD-PE Inclusion Count (Fold over control) (HepG2 cells): 1.9 Fold over control
